Experimental data published in BindingDB's records for doi:10.1021/jm0303094 (Aton Pharma, 2003).
pEC50, pIC50: −log10 of the molar value.

biological target: not listed separately; test: Inhibition of acetylation of histone-4 in human T-24 cancer cells

SMILES	pEC50
O=C(NO)c1ccc(NS(=O)(=O)c2ccccc2)cc1 [4-Benzenesulfonylamino-N-hydroxy-benzamide]	5.30
Cc1ccc(NS(=O)(=O)c2ccc(/C=C/C(=O)NO)cc2)cc1 [US8796330, 161]	6.00
O=C(Cc1ccc(NS(=O)(=O)c2ccccc2)cc1)NO [2-(4-Benzenesulfonylamino-phenyl)-N-hydroxy-acetamide]	< 4.60
CC(Cc1ccc(NS(=O)(=O)c2ccccc2)cc1)C(=O)NO (stereo not given) [3-(4-Benzenesulfonylamino-phenyl)-N-hydroxy-2-methyl-propionamide]	< 4.60
C/C(=C\c1ccc(NS(=O)(=O)c2ccccc2)cc1)C(=O)NO [US8796330, 91]	< 4.60
O=C(/C=C/c1ccc(NS(=O)(=O)c2ccc(-c3ccccc3)cc2)cc1)NO [US8796330, 120]	6.00
COc1ccc(S(=O)(=O)Nc2ccc(/C=C/C(=O)NO)cc2)cc1OC [US8796330, 90]	6.00
CC(C)C(Cc1ccc(NS(=O)(=O)c2ccccc2)cc1)C(=O)NO (stereo not given) [US8796330, 81]	< 4.60
O=C(CCCc1ccc(NS(=O)(=O)c2ccccc2)cc1)NO [US8796330, 42]	< 4.60
O=C(CCc1ccc(NS(=O)(=O)c2ccccc2)cc1)NO [US8796330, 38]	5.30
Cc1ccc(S(=O)(=O)Nc2ccc(/C=C/C(=O)NO)cc2)cc1 [US8796330, 108]	5.00
COc1ccc(S(=O)(=O)Nc2ccc(/C=C/C(=O)NO)cc2)cc1 [US8796330, 113]	5.30
COc1ccc(NC(=O)Nc2ccc(/C=C/C(=O)NO)cc2)cc1OC	< 4.60
O=C(/C=C/c1ccc(S(=O)(=O)Nc2ccc(-c3ccccc3)cc2)cc1)NO	6.00
CN(c1ccc(/C=C/C(=O)NO)cc1)S(=O)(=O)c1ccccc1	< 4.60

biological target: Histone deacetylase; test: Inhibitory concentration determined against Histone deacetylase from Eimeria tenella

SMILES	pIC50
CCC(C)[C@@H]1NC(=O)[C@H](Cc2cn(OC)c3ccccc23)NC(=O)[C@H](CCCCCC(=O)OC)NC(=O)[C@H]2CCCCN2C1=O (stereo partly drawn) [6-[(6S,9S,12S,14aR)-6-sec-Butyl-9-(1-methoxy-1H-indol-3-ylmethyl)-5,8,11,14-tetraoxo-tetradecahydro-4a,7,10,13-tetraaza-benzocyclododecen-12-yl]-hexanoic acid methyl ester]	9.10
CCC(C)[C@@H]1NC(=O)[C@H](Cc2cn(OC)c3ccccc23)NC(=O)[C@H](CCCCCC(=O)NO)NC(=O)[C@H]2CCCCN2C1=O (stereo partly drawn) [6-[(6S,9S,12S,14aR)-6-sec-Butyl-9-(1-methoxy-1H-indol-3-ylmethyl)-5,8,11,14-tetraoxo-tetradecahydro-4a,7,10,13-tetraaza-benzocyclododecen-12-yl]-hexanoic acid hydroxyamide]	8.40
CCC(C)[C@@H]1NC(=O)[C@H](Cc2cn(OC)c3ccccc23)NC(=O)[C@H](CCCCCC(=O)O)NC(=O)[C@H]2CCCCN2C1=O (stereo partly drawn) [6-[(6S,9S,12S,14aR)-6-sec-Butyl-9-(1-methoxy-1H-indol-3-ylmethyl)-5,8,11,14-tetraoxo-tetradecahydro-4a,7,10,13-tetraaza-benzocyclododecen-12-yl]-hexanoic acid]	7.52
CCC(C)[C@@H]1NC(=O)[C@H](Cc2cn(OC)c3ccccc23)NC(=O)[C@H](CCCCCC(=O)C2CO2)NC(=O)[C@H]2CCCCN2C1=O (stereo partly drawn) [(6S,9S,12S,14aR)-6-sec-Butyl-9-(1-methoxy-1H-indol-3-ylmethyl)-12-(6-oxiranyl-6-oxo-hexyl)-decahydro-4a,7,10,13-tetraaza-benzocyclododecene-5,8,11,14-tetraone]	9.00
CCC(C)[C@@H]1NC(=O)[C@H](Cc2cn(OC)c3ccccc23)NC(=O)[C@H](CCCCCC(=O)C(C)O)NC(=O)[C@H]2CCCCN2C1=O (stereo partly drawn) [(6S,9S,12S,14aR)-6-sec-Butyl-12-(7-hydroxy-6-oxo-octyl)-9-(1-methoxy-1H-indol-3-ylmethyl)-decahydro-4a,7,10,13-tetraaza-benzocyclododecene-5,8,11,14-tetraone]	8.40
